Laboratory results: ChEMBL document CHEMBL6078724, “Discovery of the first examples of right open reading frame kinase 2 (RIOK2) molecular glue degraders” (Eur J Med Chem, 2025)
The source made the active and inactive calls. The rule behind the calls is not given here.

Columns and labels:
[1] = Cmax in Sprague-Dawley rat at 10 mg/kg, ip measured for 24 hrs; assay type: ADME, organism-based; settings: in vivo
[2] = target: T1, E3 ubiquitin-protein ligase RNF126/Serine/threonine-protein kinase RIO2 (Homo sapiens, UniProt Q9BVS4+Q9BV68); test: Molecular glue degradation activity at RNF126/RIOK2 in CHX-treated human MOLT-4 cells assessed as half life of RIOK2 at 2 uM by immunoblot analysis (reference value: 12.5 hrs); assay type: cell-based
Target sequence in this assay (Q9BV68 2-311 partner limits assumed): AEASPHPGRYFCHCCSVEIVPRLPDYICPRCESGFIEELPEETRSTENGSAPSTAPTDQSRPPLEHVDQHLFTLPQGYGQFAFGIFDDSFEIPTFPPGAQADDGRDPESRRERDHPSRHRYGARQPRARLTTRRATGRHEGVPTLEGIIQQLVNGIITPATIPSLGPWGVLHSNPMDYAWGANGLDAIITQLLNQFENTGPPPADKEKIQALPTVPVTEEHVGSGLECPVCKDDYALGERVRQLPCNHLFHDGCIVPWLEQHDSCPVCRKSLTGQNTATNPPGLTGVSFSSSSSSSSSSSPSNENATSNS
Target sequence in this assay (Q9BVS4 whole entry): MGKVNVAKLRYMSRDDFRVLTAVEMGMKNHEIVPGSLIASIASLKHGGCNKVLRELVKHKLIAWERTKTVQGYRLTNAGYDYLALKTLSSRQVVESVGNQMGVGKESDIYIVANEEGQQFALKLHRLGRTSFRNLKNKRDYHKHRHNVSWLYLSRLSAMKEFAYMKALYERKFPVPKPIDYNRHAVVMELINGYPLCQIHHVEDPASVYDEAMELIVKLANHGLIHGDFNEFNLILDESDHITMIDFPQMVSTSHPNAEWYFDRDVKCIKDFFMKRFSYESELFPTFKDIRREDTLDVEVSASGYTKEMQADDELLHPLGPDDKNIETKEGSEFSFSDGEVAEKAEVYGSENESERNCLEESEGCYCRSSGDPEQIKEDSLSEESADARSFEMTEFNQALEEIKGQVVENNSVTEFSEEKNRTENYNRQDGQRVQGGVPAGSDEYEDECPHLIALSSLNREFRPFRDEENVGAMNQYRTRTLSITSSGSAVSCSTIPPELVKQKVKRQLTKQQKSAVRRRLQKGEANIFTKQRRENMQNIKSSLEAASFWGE

MOLT-4 = test: Induction of cell cycle arrest in human MOLT-4 cells assessed as accumulation at G2/M phase at 900 nM incubated for 24 hrs by PI staining based flow cytometry relative to control; assay type: functional
[3] = target: T1, E3 ubiquitin-protein ligase RNF126/Serine/threonine-protein kinase RIO2; test: Molecular glue degradation activity at RNF126/RIOK2 in human OCILY3 cells assessed as induction protein degradation by immunoblot analysis relative to control; assay type: cell-based
Target sequence in this assay (Q9BV68 2-311 partner limits assumed): as the sequence (Q9BV68 2-311 partner limits assumed) above
Target sequence in this assay (Q9BVS4 whole entry): as the sequence (Q9BVS4 whole entry) above

[4] = target: T1, E3 ubiquitin-protein ligase RNF126/Serine/threonine-protein kinase RIO2; test: Molecular glue degradation activity at RNF126/RIOK2 in human MOLT-4 cells assessed as induction protein degradation incubated for 12 hrs by immunoblot analysis; assay type: cell-based
[5] = target: T1, E3 ubiquitin-protein ligase RNF126/Serine/threonine-protein kinase RIO2; test: Molecular glue degradation activity at RNF126/RIOK2 in HEK293 cells assessed as induction protein degradation by immunoblot analysis; assay type: cell-based
Target sequence in this assay (Q9BVS4 whole entry): as above
Target sequence in this assay (Q9BV68 whole entry): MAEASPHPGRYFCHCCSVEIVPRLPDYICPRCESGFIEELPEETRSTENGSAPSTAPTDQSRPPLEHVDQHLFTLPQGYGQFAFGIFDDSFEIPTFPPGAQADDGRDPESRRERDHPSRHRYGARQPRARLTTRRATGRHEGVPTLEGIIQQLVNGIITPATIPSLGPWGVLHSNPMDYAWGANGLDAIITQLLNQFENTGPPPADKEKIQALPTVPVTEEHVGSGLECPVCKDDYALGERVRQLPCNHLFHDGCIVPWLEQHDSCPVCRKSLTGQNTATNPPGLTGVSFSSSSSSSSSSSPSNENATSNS

[6] = target: T1, E3 ubiquitin-protein ligase RNF126/Serine/threonine-protein kinase RIO2; test: Molecular glue degradation activity at RNF126/RIOK2 in human OCILY3 cells assessed as induction protein degradation by immunoblot analysis; assay type: cell-based
Target sequence in this assay (Q9BVS4 whole entry): as the sequence (Q9BVS4 whole entry) above
Target sequence in this assay (Q9BV68 whole entry): as the sequence (Q9BV68 whole entry) above

[7] = Clearance in Sprague-Dawley rat at 5 mg/kg, iv measured for 24 hrs; assay type: ADME, organism-based; settings: in vivo
[8] = AUClast in Sprague-Dawley rat at 10 mg/kg, ip measured for 24 hrs; assay type: ADME, organism-based; settings: in vivo
HeLa = test: Antiproliferative activity against human HeLa cells incubated for 72 hrs by CCK8 assay; assay type: functional, cell-based
Mus musculus = test: In vivo molecular glue degradation activity at RNF126/RIOK2 in SCID-CB17 mouse xenografted with human MOLT-4 cells assessed as induction of RIOK2 degradation in tumor at 10 mg/kg, ip for 18 days measured after 4 hrs post-last dose; assay type: functional, organism-based; settings: time 436.0 hrs

Cmax [1]: 90.6 ng/mL
T1/2 [2]: 9.6 h
Emax [3]: 66.9%
DC50 [4]: 410 nM
Activity ([4]; dose <= 10.0 µM): Dose-dependent-effect
DC50 [5]: > 10000 nM
DC50 [6]: 450 nM
clearance [7]: 69.2 mL/min/kg
AUClast [8]: 1200 ng·h/mL
IC50 (HeLa): 580 nM
SMILES: COc1ccc(-c2ccc3[nH]c(=O)c4nnn(-c5ccc(N6CCN(C(=O)/C=C/C(=O)c7ccc(F)cc7)CC6)c(C(F)(F)F)c5)c4c3c2)cn1
Activity (MOLT-4): 39.6%
Activity (Mus musculus): Active
